Measured values reported in patent publication US6593454B2, “Methods for identifying inhibitors of methionine aminopeptidases” (Saint Louis University, priority 1999, dated 2003).

Tests used:
type 2 MAP = type 2 MAP (Homo sapiens, UniProt P50579); assay: Coupled MAP/dipeptidyl peptidase IV assay, release of p-nitroanilide at 405 nm, type 2 MAP inhibition; assay type: biochemical
Method: (§1) MAP activity was next determined by monitoring the release of p-nitroanilide in a microtiter format. Purified type 1 MAP or type 2 MAP (0.6 μg) and/or 0.001 unit of dipeptidyl peptidase IV was added in 47 μl of buffer H (10 mM Hepes, pH 7.4, 10% glycerol), containing 0.1 M KCl and 0.1 mM of Co^2+ in wells of a 96-well microtiter plate. After incubating at 37° C. for 5 min, 2 mM of Met-Gly-Pro-p-nitroanilide was added to the mixture to start the reaction. A microtiter plate reader, set at 405 nm to detect released p-nitroanilide, was used to record the progress of the reactions. […] These curves are highly reproducible and linear, with correlation coefficients (r^2)>0.98.
(§2) After incubating the inhibitor with MAP solutions at 37° C. for 10 min, 2 mM of Met-Gly-Pro-p-nitroanilide was added to start the reaction, and the release of p-nitroanilide was monitored with a microtiter plate reader at 405 nm as described above. The effect of fumigillin on dipeptidyl peptidase IV activity was also tested by using Gly-Pro-p-nitroanilide as the substrate.

type 1 MAP = type 1 MAP (Saccharomyces cerevisiae, UniProt Q01662); assay: Coupled MAP/dipeptidyl peptidase IV assay, release of p-nitroanilide at 405 nm, type 1 MAP inhibition; assay type: biochemical, yeast
Method: as §1, §2

dipeptidyl peptidase IV = dipeptidyl peptidase IV (Homo sapiens, UniProt P27487); assay: Dipeptidyl peptidase IV control assay with Gly-Pro-p-nitroanilide as substrate; assay type: biochemical
Method: as §1, §2

[1] = FIG. 3 legend, dipeptidyl peptidase IV and Met-Gly-Pro-p-nitroanilide, no concentration stated

type 1 MAP, sequence (Q01662 whole entry): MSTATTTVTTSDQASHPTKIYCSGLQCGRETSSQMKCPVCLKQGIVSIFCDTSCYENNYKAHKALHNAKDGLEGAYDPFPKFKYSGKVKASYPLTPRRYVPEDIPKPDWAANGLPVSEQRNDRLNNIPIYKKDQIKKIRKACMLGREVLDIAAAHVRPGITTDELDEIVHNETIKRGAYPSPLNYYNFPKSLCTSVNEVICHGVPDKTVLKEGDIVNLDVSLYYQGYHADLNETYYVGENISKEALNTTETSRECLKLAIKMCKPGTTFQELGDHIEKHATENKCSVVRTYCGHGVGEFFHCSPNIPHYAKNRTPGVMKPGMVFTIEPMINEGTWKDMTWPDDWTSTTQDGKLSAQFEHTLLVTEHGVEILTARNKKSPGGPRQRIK
type 2 MAP, sequence (P50579 whole entry): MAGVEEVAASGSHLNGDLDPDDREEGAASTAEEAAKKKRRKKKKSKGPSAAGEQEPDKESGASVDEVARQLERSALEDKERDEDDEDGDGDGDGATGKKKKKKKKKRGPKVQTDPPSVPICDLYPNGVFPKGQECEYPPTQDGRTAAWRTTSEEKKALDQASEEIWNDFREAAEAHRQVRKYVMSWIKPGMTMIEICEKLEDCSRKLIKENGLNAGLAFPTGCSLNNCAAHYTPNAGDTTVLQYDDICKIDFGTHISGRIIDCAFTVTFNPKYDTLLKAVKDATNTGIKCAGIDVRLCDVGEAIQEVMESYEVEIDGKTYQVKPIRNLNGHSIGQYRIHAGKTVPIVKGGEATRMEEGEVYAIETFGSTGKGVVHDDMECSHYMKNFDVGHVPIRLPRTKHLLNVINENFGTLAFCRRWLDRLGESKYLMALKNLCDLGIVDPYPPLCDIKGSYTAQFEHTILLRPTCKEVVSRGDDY
dipeptidyl peptidase IV, sequence (P27487 whole entry, species assumed): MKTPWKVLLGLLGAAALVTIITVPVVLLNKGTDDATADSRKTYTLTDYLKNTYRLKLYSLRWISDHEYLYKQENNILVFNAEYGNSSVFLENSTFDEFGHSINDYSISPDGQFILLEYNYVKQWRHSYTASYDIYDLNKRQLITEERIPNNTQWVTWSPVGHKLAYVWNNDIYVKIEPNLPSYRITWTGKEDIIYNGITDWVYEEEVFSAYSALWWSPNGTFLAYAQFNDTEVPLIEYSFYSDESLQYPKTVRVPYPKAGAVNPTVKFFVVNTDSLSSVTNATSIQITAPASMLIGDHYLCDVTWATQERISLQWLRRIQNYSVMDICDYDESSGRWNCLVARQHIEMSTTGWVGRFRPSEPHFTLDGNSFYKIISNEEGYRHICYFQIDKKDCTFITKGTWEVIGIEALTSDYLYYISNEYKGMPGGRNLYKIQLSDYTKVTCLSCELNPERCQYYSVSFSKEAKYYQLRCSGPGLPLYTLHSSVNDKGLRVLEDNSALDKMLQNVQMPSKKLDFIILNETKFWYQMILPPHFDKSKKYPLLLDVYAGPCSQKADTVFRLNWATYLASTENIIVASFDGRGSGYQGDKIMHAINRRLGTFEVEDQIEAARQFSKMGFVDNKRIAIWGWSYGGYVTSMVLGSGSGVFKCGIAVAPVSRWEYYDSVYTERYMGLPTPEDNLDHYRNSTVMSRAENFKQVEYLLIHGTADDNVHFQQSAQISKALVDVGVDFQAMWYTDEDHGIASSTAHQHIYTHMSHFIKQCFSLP

## CO[C@@H]1[C@H](OC(=O)/C=C/C=C/C=C/C=C/C(=O)O)CC[C@]2(CO2)[C@H]1[C@@]1(C)O[C@@H]1CC=C(C)C [fumagillin]
Type 2 MAP; 20 nM inhibitor, 10 min preincubation at 37° C., 2 mM Met-Gly-Pro-p-nitroanilide, FIG. 3
  type 2 MAP activity: completely inhibited
Type 2 MAP; [1]
  release of p-nitroanilide when type 2 MAP was used: strongly inhibited
Type 1 MAP; 50 nM inhibitor, 10 min preincubation at 37° C., 2 mM Met-Gly-Pro-p-nitroanilide, FIG. 3
  type 1 MAP activity: remained unaffected
Type 1 MAP; [1]
  release of p-nitroanilide when type 1 MAP was used: not
Dipeptidyl peptidase IV; 50 nM inhibitor, Gly-Pro-p-nitroanilide as substrate, FIG. 3
  dipeptidyl peptidase IV activity: remained unaffected
Dipeptidyl peptidase IV; FIG. 3 legend, no concentration stated
  release of p-nitroanilide when dipeptidyl peptidase IV was used with Gly-Pro-p-nitroanilide: not
